From ChEMBL document CHEMBL1124186, “Synthesis and evaluation of tylosin-related macrolides modified at the aldehyde function: a new series of orally effective antibiotics” (1988)
In brackets after ≈: the same amount, converted by molar mass.

Key:
[1] = tested on: Bacteroides fragilis; assay: In vitro antimicrobial activity against anaerobic bacteria bacteroides fragilis 111; format: functional
[2] = tested on: Bacteroides fragilis; assay: In vitro antimicrobial activity against anaerobic bacteria bacteroides fragilis 1877; format: functional
[3] = tested on: Bacteroides fragilis; assay: In vitro antimicrobial activity against anaerobic bacteria bacteroides fragilis 1936B,; format: functional
[4] = tested on: Eikenella corrodens; assay: In vitro antimicrobial activity against anaerobic bacteria bacteroides corrodens 1874; format: functional
[5] = tested on: Phocaeicola vulgatus; assay: In vitro antimicrobial activity against anaerobic bacteria bacteroides vulgatus 1211; format: functional
[6] = tested on: Prevotella melaninogenica; assay: In vitro antimicrobial activity against anaerobic bacteria bacteroides melaninogenicus 1856,; format: functional
[7] = tested on: Bacteroides thetaiotaomicron; assay: In vitro antimicrobial activity against anaerobic bacteria bacteroides thetaiotaomicron 1438; format: functional
[8] = tested on: Clostridioides difficile; assay: In vitro antimicrobial activity against anaerobic bacteria Clostridium difficile 2994; format: functional
[9] = tested on: Clostridium perfringens; assay: In vitro antimicrobial activity against anaerobic bacteria clostridium perfringens 81,; format: functional
[10] = tested on: Clostridium septicum; assay: In vitro antimicrobial activity against anaerobic bacteria clostridium septicum 1128; format: functional
[11] = tested on: Chlamydia trachomatis; assay: In vitro antimicrobial activity against chlamydia trachomatis.; format: functional
[12] = tested on: Fusobacterium; assay: In vitro antimicrobial activity against anaerobic bacteria fusobacterium symbiosum 1470; format: functional
[13] = tested on: Haemophilus influenzae; assay: In vitro antimicrobial activity against aerobic bacteria Haemophilus influenzae 76; format: functional
[14] = tested on: Haemophilus influenzae; assay: In vitro antimicrobial activity against aerobic bacteria Haemophilus influenzae MX366,; format: functional
[15] = tested on: Haemophilus influenzae; assay: In vitro antimicrobial activity against Haemophilus influenzae.; format: functional
[16] = tested on: Haemophilus parainfluenzae; assay: In vitro antimicrobial activity against aerobic bacteria Haemophilus parainfluenzae 9796; format: functional
[17] = In vitro antimicrobial activity against anaerobic bacteria peptostreptococcus intermedius 1264; format: functional
[18] = tested on: Peptoniphilus asaccharolyticus; assay: In vitro antimicrobial activity against anaerobic bacteria peptococcus asaccharolyticus 1302; format: functional
[19] = tested on: Anaerococcus prevotii; assay: In vitro antimicrobial activity against anaerobic bacteria peptococcus prevoti 1281; format: functional
[20] = tested on: Cutibacterium acnes; assay: In vitro antimicrobial activity against anaerobic bacteria propionibacterium acnes 79; format: functional
[21] = tested on: Streptococcus; assay: In vitro antimicrobial activity against aerobic bacteria Streptococcus B 8; format: functional
[22] = tested on: Streptococcus; assay: In vitro antimicrobial activity against aerobic bacteria Streptococcus C 24; format: functional
[23] = tested on: Streptococcus; assay: In vitro antimicrobial activity against aerobic bacteria Streptococcus D 8043; format: functional
[24] = tested on: Streptococcus; assay: In vitro antimicrobial activity against aerobic bacteria Streptococcus D 9960; format: functional
[25] = tested on: Streptococcus; assay: In vitro antimicrobial activity against aerobic bacteria Streptococcus G Kruder; format: functional; conditions: Streptococcus; read-out: MIC
[26] = tested on: Staphylococcus epidermidis; assay: In vitro antimicrobial activity against aerobic bacteria Streptococcus epi 270; format: functional
[27] = tested on: Staphylococcus aureus; assay: In vitro antimicrobial activity against Staphylococcus aureus X1; format: functional
[28] = tested on: Staphylococcus aureus; assay: In vitro antimicrobial activity against aerobic bacteria Staphylococcus aureus 513E; format: functional
[29] = tested on: Staphylococcus aureus; assay: In vitro antimicrobial activity against aerobic bacteria Staphylococcus aureus V140,; format: functional
[30] = tested on: Staphylococcus aureus; assay: In vitro antimicrobial activity against aerobic bacteria Staphylococcus aureus V41; format: functional
[31] = tested on: Staphylococcus aureus; assay: In vitro antimicrobial activity against aerobic bacteria Staphylococcus aureus X400; format: functional
[32] = tested on: Streptococcus pneumoniae; assay: In vitro antimicrobial activity against aerobic bacteria Streptococcus pneumoniae B1-438; format: functional, streptococcus pneum
[33] = tested on: Streptococcus pyogenes; assay: In vivo effective dose against Streptococcus pyogenes C203 when administered orally; format: functional; conditions: po
[34] = tested on: Streptococcus pyogenes; assay: In vivo effective dose against Streptococcus pyogenes C203 when administered sc; format: functional
[35] = tested on: Streptococcus sanguinis; assay: In vitro antimicrobial activity against aerobic bacteria Streptococcus sanguis MX132; format: functional
[36] = tested on: Streptococcus pneumoniae; assay: In vitro antimicrobial activity against Streptococcus pneumoniae; format: functional
[37] = tested on: Staphylococcus epidermidis; assay: In vitro antimicrobial activity against Staphylococcus epidermidis EPI1; format: functional
[38] = tested on: Staphylococcus epidermidis; assay: In vitro antimicrobial activity against aerobic bacteria Streptococcus epi 222; format: functional
[39] = tested on: Enterococcus faecium; assay: In vitro antimicrobial activity against Streptococcus faecium X66; format: functional, streptococcus fae-cium
[40] = tested on: Streptococcus pyogenes; assay: In vitro antimicrobial activity against Streptococcus pyogenes C203; format: functional
[41] = tested on: Streptococcus viridans; assay: In vitro antimicrobial activity against aerobic bacteria Streptococcus viridans 9943; format: functional
[42] = tested on: Streptococcus; assay: In vitro antimicrobial activity against aerobic bacteria Streptococcus B 5; format: functional
[43] = tested on: Staphylococcus aureus; assay: In vitro antimicrobial activity against aerobic bacteria Staphylococcus aureus V135; format: functional
[44] = tested on: Haemophilus influenzae; assay: In vitro antimicrobial activity against aerobic bacteria Haemophilus influenzae 465; format: functional
[45] = tested on: Prevotella melaninogenica; assay: In vitro antimicrobial activity against anaerobic bacteria bacteroides melaninogenicus 2736; format: functional
[46] = tested on: Fusobacterium necrophorum; assay: In vitro antimicrobial activity against anaerobic bacteria usobacterium necrophorum 6054A; format: functional
[47] = tested on: Collinsella aerofaciens; assay: In vitro antimicrobial activity against anaerobic bacteria eubacterium aerofaciens 1235; format: functional
[48] = tested on: Streptococcus; assay: In vitro antimicrobial activity against aerobic bacteria Streptococcus D 2041; format: functional
[49] = tested on: Peptostreptococcus anaerobius; assay: In vitro antimicrobial activity against anaerobic bacteria eubacterium peptostreptococcus anaerobius 1428,; format: functional
[50] = tested on: Streptococcus pyogenes; assay: Antimicrobial activity against Streptococcus pyogenes C203; format: functional

CC[C@H]1OC(=O)C[C@@H](O)[C@H](C)[C@@H](O[C@@H]2O[C@H](C)[C@@H](O[C@H]3C[C@@](C)(O)[C@@H](O)[C@H](C)O3)[C@H](N(C)C)[C@H]2O)[C@@H](CC=O)C[C@@H](C)C(=O)/C=C/C(C)=C/[C@@H]1CO
MIC [1]: 2 µg/mL (≈ 2.7 µM)
MIC [2]: 4 µg/mL (≈ 5.39 µM)
MIC [3]: 2 µg/mL (≈ 2.7 µM)
MIC [4]: 2 µg/mL (≈ 2.7 µM)
MIC [5]: 2 µg/mL (≈ 2.7 µM)
MIC [6]: 0.5 µg/mL (≈ 0.674 µM)
MIC [7]: 2 µg/mL (≈ 2.7 µM)
MIC [8]: 1 µg/mL (≈ 1.35 µM)
MIC [9]: 0.5 µg/mL (≈ 0.674 µM)
MIC [10]: 0.5 µg/mL (≈ 0.674 µM)
MIC [11]: 1 µg/mL (≈ 1.35 µM)
MIC [12]: 0.5 µg/mL (≈ 0.674 µM)
MIC [13]: 4 µg/mL (≈ 5.39 µM)
MIC [14]: 2 µg/mL (≈ 2.7 µM)
MIC [15]: 4 µg/mL (≈ 5.39 µM)
MIC [16]: 8 µg/mL (≈ 10.8 µM)
MIC [17]: 0.25 µg/mL (≈ 0.337 µM)
MIC [18]: < 0.03 µg/mL
MIC [19]: 8 µg/mL (≈ 10.8 µM)
MIC [20]: 0.25 µg/mL (≈ 0.337 µM)
MIC [21]: 0.25 µg/mL (≈ 0.337 µM)
MIC [22]: 0.25 µg/mL (≈ 0.337 µM)
MIC [23]: 0.5 µg/mL (≈ 0.674 µM)
MIC [24]: 1 µg/mL (≈ 1.35 µM)
MIC [25]: 0.25 µg/mL (≈ 0.337 µM)
MIC [26]: > 128 µg/mL
MIC [27]: 1 µg/mL (≈ 1.35 µM)
MIC [28]: 1 µg/mL (≈ 1.35 µM)
MIC [29]: 2 µg/mL (≈ 2.7 µM)
MIC [30]: 1 µg/mL (≈ 1.35 µM)
MIC [31]: 2 µg/mL (≈ 2.7 µM)
MIC [32]: 128 µg/mL (≈ 173 µM)
ED50 [33]: 82 mg/kg
ED50 [34]: 1.9 mg/kg
MIC [35]: 0.25 µg/mL (≈ 0.337 µM)
MIC [36]: 0.5 µg/mL (≈ 0.674 µM)
MIC [37]: 1 µg/mL (≈ 1.35 µM)
MIC [38]: 0.25 µg/mL (≈ 0.337 µM)
MIC [39]: 1 µg/mL (≈ 1.35 µM)
MIC [40]: 0.25 µg/mL (≈ 0.337 µM)
MIC [41]: > 128 µg/mL
MIC [42]: 0.5 µg/mL (≈ 0.674 µM)
MIC [43]: 2 µg/mL (≈ 2.7 µM)
MIC [44]: 8 µg/mL (≈ 10.8 µM)
MIC [45]: 2 µg/mL (≈ 2.7 µM)
MIC [46]: 0.12 µg/mL (≈ 0.162 µM)
MIC [47]: 0.12 µg/mL (≈ 0.162 µM)
MIC [48]: 0.5 µg/mL (≈ 0.674 µM)
MIC [49]: 4 µg/mL (≈ 5.39 µM)
MIC [50]: 0.25 µg/mL (≈ 0.337 µM)
